Assays:
[1] = system: child suffering pattern sensitivity-induced seizures; details: single case, resistant to anticonvulsive treatment; cited from earlier work
Lennox-Gastaut patients = assay: Open-label Phase 2 add-on study of low-dose fenfluramine in Lennox-Gastaut patients; assay type: in vivo, human
Protocol: The efficacy of fenfluramine as an add-on treatments in Lennox-Gastaut patients is studied in a Phase 2 Clinical Trial. The study protocol is described and preliminary results are presented here.
An open-label, non-placebo controlled add-on study was designed to assess the efficacy and safety of low-dose add-on fenfluramine across a range of fenfluramine doses (0.2, 0.4, 0.8 mg/kg/day, to a maximum of 30 mg/day). The trial was conducted over a 20 week period, with responders eligible for follow-on treatment, with follow-up appointments at three month intervals.
Patients were recruited from childhood epilepsy clinics in Leuven and Antwerp, Belgium, and selected for inclusion in the study according to criteria comprising a combination of age, physical and psychological characteristics, and resistance to treatment with conventional therapies. Details of selection criteria are provided below.
Study duration is 20 weeks, ending at week 20 after inclusion of 20 patients, i.e., 20 weeks following the enrollment of the 20th patient. Patients who respond to treatment are enrolled in a follow-on study and assessed on an ongoing basis.
Patients are examined during six clinical visits (V1 through V6) scheduled at four week intervals, ending with V6 at week 20. […] At each visit, endpoints and safety criteria are assessed, and dosages adjusted as necessary.
Add-on treatment is begun at V2. […] Endpoints and safety criteria are assessed (seizure counting, adverse effects, pregnancy testing, and quality of life indicators (CGI, sleep scale)). […]
At each of V3-V5, endpoints and safety criteria are again assessed. […]
At V6, endpoints and safety criteria are again assessed. […]
Fenfluramine: Oral fenfluramine solution (2.5 mg/ml or 5 mg/ml) is provided by Zogenix Pharma. […] Patient compliance is assessed by control of oral solution quantity at each visit and collection of seizure diary with notification of drug intake. […]
Safety assessment: Treatment safety is assessed using a combination of physical examination, blood testing, cardiac evaluation, and adverse event reporting. […]

[2] = system: self-induced photosensitive seizures; details: four cases; cited from earlier work
[3] = system: children with refractory epilepsy; details: 0.5 to 1 mg/kg/day; cited from earlier work

SMILES: CCNC(C)Cc1cccc(C(F)(F)F)c1 (stereo not drawn) [fenfluramine, 3-trifluoromethyl-N-ethylamphetamine]
- self-induced seizures [1]: successfully terminated these self-induced seizures
- total seizure frequency (Lennox-Gastaut patients; 3 patients receiving 0.2 mg/kg/day, add-on, interim results): significant decreases in total seizure frequency
- serious side effects (Lennox-Gastaut patients; 9 patients receiving add-on fenfluramine, interim results): None of the 9 patients receiving fenfluramine reported serious side effects
- seizure frequency (overall interim conclusion) (Lennox-Gastaut patients; low-dose add-on treatment, early interim data): effective in reducing seizure frequency
- response of self-induced photosensitive seizures [2]: responded to treatment with fenfluramine
- number of seizures experienced by the patients [3]: reduction in the number of seizures

Reference: patent US20240245631A1, “METHODS OF TREATING LENNOX-GASTAUT SYNDROME USING FENFLURAMINE” (ZOGENIX INTERNATIONAL LIMITED, priority 2015, published 2024)
